The source made the active and inactive calls. The rule behind the calls is not given here.
Columns and labels:
Assay in all cases: LYPLA1 inhibition and serine hydrolase selectivity, late-stage follow-up, fluorescence, gel-based ABPP, mouse proteome (AID 504520);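 note: soluble proteome from BW5147 murine T cells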
Conditions in all cases: FP-rhodamine fluorescence, stronger effect = higher value
ABHD11 = test system: ABHD11
ESD = test system: ESD
LYPLA1 = test system: LYPLA1
LYPLA2 = test system: LYPLA2
[1] = molecular target: Platelet-activating factor acetylhydrolase 2, cytoplasmic (Mus musculus) (UniProt Q8VDG7)
Sequence of Platelet-activating factor acetylhydrolase 2, cytoplasmic (Mus musculus) (Q8VDG7 whole entry, looked up): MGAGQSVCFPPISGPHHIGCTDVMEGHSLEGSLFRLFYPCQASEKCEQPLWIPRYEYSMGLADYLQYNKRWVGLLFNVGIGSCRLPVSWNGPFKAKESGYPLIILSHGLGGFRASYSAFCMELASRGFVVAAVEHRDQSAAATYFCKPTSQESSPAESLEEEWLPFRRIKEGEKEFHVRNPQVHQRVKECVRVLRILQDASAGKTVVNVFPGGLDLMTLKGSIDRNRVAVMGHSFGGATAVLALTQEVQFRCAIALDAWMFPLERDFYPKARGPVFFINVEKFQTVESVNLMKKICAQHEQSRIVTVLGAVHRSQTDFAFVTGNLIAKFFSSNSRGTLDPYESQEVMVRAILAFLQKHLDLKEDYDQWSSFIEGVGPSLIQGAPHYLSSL

inhibition (ABHD11; at 0.75 µM)	inhibition (ABHD11; inhibition, at 0.03 µM)	inhibition (ABHD11; inhibition, at 0.15 µM)	inhibition (ESD; at 0.75 µM)	inhibition (ESD; inhibition, at 0.03 µM)	inhibition (ESD; inhibition, at 0.15 µM)	inhibition (LYPLA1; at 0.75 µM)	inhibition (LYPLA1; inhibition, at 0.03 µM)	inhibition (LYPLA1; inhibition, at 0.15 µM)	inhibition (LYPLA2; at 0.75 µM)	inhibition (LYPLA2; inhibition, at 0.03 µM)	inhibition (LYPLA2; inhibition, at 0.15 µM)	inhibition ([1]; PAFAH2, at 0.75 µM)	inhibition ([1]; PAFAH2, inhibition, at 0.03 µM)	inhibition ([1]; PAFAH2, inhibition, at 0.15 µM)	SMILES
75%	0%	50%	0% (inactive)	0%	0%	0% (inactive)	0%	0%	0% (inactive)	0%	0%	0% (inactive)	0%	0%	COCCCC1CCCCN1C(=O)n1ncc(C(O)(c2ccccc2)c2ccccc2)n1 (stereo not given)
100%	100%	100%	0% (inactive)	0%	0%	0% (inactive)	0%	0%	0% (inactive)	0%	0%	0% (inactive)	0%	0%	CCC1CCCCN1C(=O)n1ncc(C(O)(c2ccccc2)c2ccccc2)n1 (stereo not given)
100%	100%	100%	25% (inactive)	0%	0%	100%	0%	50%	25% (inactive)	0%	0%	0% (inactive)	0%	0%	COC1CCN(C(=O)n2ncc(C(O)(c3ccccc3)c3ccccc3)n2)CC1
100%	100%	100%	25% (inactive)	0%	10%	50% (inactive)	0%	0%	0% (inactive)	0%	0%	100%	0%	100%	O=C(N1CCc2ccccc2C1)n1ncc(C(O)(c2ccccc2)c2ccccc2)n1
100%	100%	100%	0% (inactive)	0%	0%	0% (inactive)	0%	0%	0% (inactive)	0%	0%	0% (inactive)	0%	0%	COCC1CCCCN1C(=O)n1ncc(C(O)(c2ccccc2)c2ccccc2)n1 (stereo not given)
100%	0%	100%	0% (inactive)	0%	0%	0% (inactive)	0%	0%	0% (inactive)	0%	0%	0% (inactive)	0%	0%	O=C(N(c1ccccc1)c1cccc(Br)c1)n1ncc(C(O)(c2ccccc2)c2ccccc2)n1
75% (inactive)	0%	0%	0% (inactive)	0%	0%	0% (inactive)	0%	0%	0% (inactive)	0%	0%	25% (inactive)	0%	0%	CN(C(=O)n1ncc(C(O)(c2ccccc2)c2ccccc2)n1)c1ccccc1

The next lines start with the compound.

SMILES	inhibition (ABHD11; at 0.75 µM)	inhibition (ABHD11; inhibition, at 0.03 µM)	inhibition (ABHD11; inhibition, at 0.15 µM)	inhibition (ESD; at 0.75 µM)	inhibition (ESD; inhibition, at 0.03 µM)	inhibition (ESD; inhibition, at 0.15 µM)	inhibition (LYPLA1; at 0.75 µM)	inhibition (LYPLA1; inhibition, at 0.03 µM)	inhibition (LYPLA1; inhibition, at 0.15 µM)	inhibition (LYPLA2; at 0.75 µM)	inhibition (LYPLA2; inhibition, at 0.03 µM)	inhibition (LYPLA2; inhibition, at 0.15 µM)	inhibition ([1]; PAFAH2, at 0.75 µM)	inhibition ([1]; PAFAH2, inhibition, at 0.03 µM)	inhibition ([1]; PAFAH2, inhibition, at 0.15 µM)
O=C(N(c1ccccc1)c1ccccc1)n1ncc(C(O)(c2ccccc2)c2ccccc2)n1	0% (inactive)	0%	0%	0% (inactive)	0%	0%	0% (inactive)	0%	0%	0% (inactive)	0%	0%	25% (inactive)	0%	0%
COc1ccc2cc(-c3cnn(C(=O)N(c4ccccc4)c4ccccc4)n3)ccc2c1	25% (inactive)	0%	0%	0% (inactive)	0%	0%	0% (inactive)	0%	0%	0% (inactive)	0%	0%	50% (inactive)	0%	0%
O=C(N1CCCCC1)n1ncc(C(O)c2ccccc2)n1 (stereo not given)	100%	75%	100%	0% (inactive)	0%	0%	100%	50%	50%	0% (inactive)	0%	0%	0% (inactive)	0%	0%
O=C(N(c1ccccc1)c1ccc2ccccc2c1)n1ncc(C(O)(c2ccccc2)c2ccccc2)n1	100%	0%	100%	0% (inactive)	0%	0%	0% (inactive)	0%	0%	0% (inactive)	0%	0%	25% (inactive)	0%	0%
CC(C)CC(O)(CC(C)C)c1cnn(C(=O)N(c2ccccc2)c2ccccc2)n1	50% (inactive)	0%	0%	0% (inactive)	0%	0%	0% (inactive)	0%	0%	0% (inactive)	0%	0%	0% (inactive)	0%	0%
O=C(N(c1ccccc1)c1ccc(Br)cc1)n1ncc(C(O)(c2ccccc2)c2ccccc2)n1	100%	0%	100%	0% (inactive)	0%	0%	0% (inactive)	0%	0%	0% (inactive)	0%	0%	0% (inactive)	0%	0%
O=C(OC(c1ccccc1)c1cnn(C(=O)N2CCCCC2)n1)N1CCCCC1 (stereo not given)	100%	100%	100%	50% (inactive)	0%	25%	100%	100%	100%	25% (inactive)	0%	0%	100%	0%	100%

Reference: PubChem BioAssay AID504520 (The Scripps Research Institute Molecular Screening Center, 2011)
